The results in this text go back to patent US6391305B1, “Conjugates useful in the treatment of prostate cancer” (priority 1999, dated 2002).

The test system of series [1] is LNCap prostate tumor cells. The series can be described thus: In vitro cytotoxicity, Alamar Blue assay, LNCaP. Type of series: cell-based. Particulars: 72 HRS, read-out: LNCaP Cell Kill in 72 HRS, {48 HRS} EC 50. On the procedure: (§1) The cytotoxicities of the cleaveable oligopeptide-doxorubicin conjugates, prepared as described in Examples 3-6, against a line of cells which is known to be killed by unmodified doxorubicin was assessed with an Alamar Blue assay. Specifically, cell cultures of LNCap prostate tumor cells or DuPRO cells in 96 well plates was diluted with medium containing various concentrations of a given conjugate (final plate well volume of 200 μl ). The cells were incubated for 3 days at 37° C., 20 μl of Alamar Blue is added to the assay well. The cells were further incubated and the assay plates were read on a EL-310 ELISA reader at the dual wavelengths of 570 and 600 nm at 4 and 7 hours after addition of Alamar Blue. Relative percentage viability at the various concentration of conjugate tested was then calculated versus control (no conjugate) cultures. If no salt is indicated, the free conjugate was tested.

Another series deals with DuPRO cells. The series can be described thus: In vitro cytotoxicity, Alamar Blue assay, DuPRO. Particulars: value in parentheses beside the LNCaP value, read-out: DuPRO cell kill EC 50. The format is cell-based. On the procedure:
as §1

The target of series [2] is T1, enzymatically active free PSA (Homo sapiens, UniProt P07288).
T1 construct: required for 50% cleavage of the noted oligopeptides with enzymatically active free PSA
The series can be described thus: Recognition (cleavage) of oligopeptide-doxorubicin conjugates by free PSA, HPLC. The format is biochemical. As to conditions: DOX conjugate; for Time to 50% Substrate Cleavage by York PSA: PSA digestion buffer pH7.4, 140 mM NaCl, molar ratio to PSA 100 to 1. On the procedure: If no salt is indicated for the conjugate, the free conjugate was tested.

Like-named read-outs stand apart in the source and are kept apart here. Marks after values point to notes of the source that are not given here. Non-standard residues stand in square brackets, D forms with d. Residues, ends and D or L forms follow the SMILES beside them. *: point of attachment. Doxorubicin(3'-N) = COc1cccc2c1C(=O)c1c(O)c3c(c(O)c1C2=O)C[C@@](O)(C(=O)CO)C[C@@H]3O[C@H]1C[C@H](N*)[C@H](O)[C@H](C)O1; Dox = doxorubicin, linked through its 3'-amine to the C-terminal carbonyl; X2 = COCCOCCOCCOCCOCCOCCOCCOCCOCCOCCOCCOCCOCCOCCOCCOCCOCC(=O)*; Decanoyl(3,6,9-trioxa) = COCCOCCOCC(=O)*; Glyceroyl(2S) = O=C([C@@H](O)CO)*; Glyceroyl(2R) = O=C([C@H](O)CO)*; X4 = COCCOCCOCCOCCOCCOCCOCC(=O)*; hArg = N=C(N)NCCCC[C@H](N)C(=O)O; 3Pal = N[C@@H](Cc1cccnc1)C(=O)O; Chg = N[C@H](C(=O)O)C1CCCCC1; Nle = CCCC[C@H](N)C(=O)O; Glycolyl = O=C(CO)* Where only a bound is given, the exact number is not on record here.

T1 sequence (P07288 25-261): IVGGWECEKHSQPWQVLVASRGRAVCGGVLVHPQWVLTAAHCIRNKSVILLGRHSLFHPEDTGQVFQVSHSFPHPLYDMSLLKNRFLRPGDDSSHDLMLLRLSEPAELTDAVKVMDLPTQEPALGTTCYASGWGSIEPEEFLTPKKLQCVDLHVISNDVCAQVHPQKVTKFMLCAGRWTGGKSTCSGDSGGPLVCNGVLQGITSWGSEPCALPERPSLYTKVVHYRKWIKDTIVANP

On to `COc1cccc2c1C(=O)c1c(O)c3c(c(O)c1C2=O)C[C@@](O)(C(=O)CO)C[C@@H]3O[C@H]1C[C@H](NC(=O)[C@H](CC(C)C)NC(=O)[C@H](CO)NC(=O)[C@H](CCC(N)=O)NC(=O)[C@@H](NC(=O)[C@H](CCCCNC(=N)N)NC(=O)[C@H](CO)NC(=O)CO)C2CCCCC2)[C@H](O)[C@H](C)O1` [2-hydroxyacetyl-SHomoRChgQ-SL-DOX (3′), 2-hydroxyacetyl-SerhArgChgGln-SerLeu-DOX (3′)] (Glycolyl-S[hArg][Chg]QSL-{Doxorubicin(3'-N)}), for which the EC50 in series [1] was 5.1 µM; in the series with DuPRO cells it was above 100 µM.

`COCCOCCOCC(=O)N[C@@H](CO)C(=O)N[C@@H](CCCCNC(=N)N)C(=O)N[C@H](C(=O)N[C@@H](CCC(N)=O)C(=O)N[C@@H](CO)C(=O)N[C@@H](CC(C)C)C(=O)N[C@H]1C[C@H](O[C@H]2C[C@](O)(C(=O)CO)Cc3c(O)c4c(c(O)c32)C(=O)c2c(OC)cccc2C4=O)O[C@@H](C)[C@H]1O)C1CCCCC1` [PEG(2)-SHomoRChgQ-SL-DOX (3′), PEG(2)-SerhArgChgGln-SerLeu-DOX (3′)] ({Decanoyl(3,6,9-trioxa)}-S[hArg][Chg]QSL-{Doxorubicin(3'-N)}): the “Time to 50% Substrate Cleavage by York PSA” value in series [2] was 25 min. Besides, the values for the EC50 (in series [1]; in the series with DuPRO cells) were 8.1 µM and above 100 µM, respectively.

For the compound `COCCOCCOCC(=O)N[C@@H](C)C(=O)N[C@@H](CO)C(=O)N[C@H](C(=O)N[C@@H](CCC(N)=O)C(=O)N[C@@H](CO)C(=O)N[C@@H](CC(C)C)C(=O)N[C@H]1C[C@H](O[C@H]2C[C@](O)(C(=O)CO)Cc3c(O)c4c(c(O)c32)C(=O)c2c(OC)cccc2C4=O)O[C@@H](C)[C@H]1O)C1CCCCC1` [PEG(2)-ASChgQ-SL-DOX (3′), PEG(2)-AlaSerChgGln-SerLeu-DOX (3′)] ({Decanoyl(3,6,9-trioxa)}-AS[Chg]QSL-{Doxorubicin(3'-N)}), the “Time to 50% Substrate Cleavage by York PSA” value in series [2] is 45 min. The EC50 in series [1] came out at 5.6 µM.

On to `COc1cccc2c1C(=O)c1c(O)c3c(c(O)c1C2=O)C[C@@](O)(C(=O)CO)C[C@@H]3O[C@H]1C[C@H](NC(=O)[C@H](CC(C)C)NC(=O)[C@H](CO)NC(=O)[C@H](CCC(N)=O)NC(=O)[C@@H](NC(=O)[C@H](CO)NC(=O)[C@H](CO)NC(=O)[C@H](CCCCNC(=N)N)NC(=O)[C@@H](O)CO)C2CCCCC2)[C@H](O)[C@H](C)O1` [(l)(2,3-dihydroxypropionyl)hArgSerSerChgGlnSerLeu-DOX (3′)] ({Glyceroyl(2S)}-[hArg]SS[Chg]QSL-{Doxorubicin(3'-N)}), for which the “Time to 50% Substrate Cleavage by York PSA” value in series [2] was 12 min. Besides, the results for the EC50 (in series [1]; in the series on DuPRO cells) were 7.5 µM and above 100 µM, respectively.

As to `COc1cccc2c1C(=O)c1c(O)c3c(c(O)c1C2=O)C[C@@](O)(C(=O)CO)C[C@@H]3O[C@H]1C[C@H](NC(=O)[C@H](CC(C)C)NC(=O)[C@H](CO)NC(=O)[C@H](CCC(N)=O)NC(=O)[C@@H](NC(=O)[C@H](CO)NC(=O)[C@H](CO)NC(=O)[C@@H](O)CO)C2CCCCC2)[C@H](O)[C@H](C)O1` [(l)(2,3-dihydroxypropionyl)-SerSerChgGln-SerLeu-DOX (3′)] ({Glyceroyl(2S)}-SS[Chg]QSL-{Doxorubicin(3'-N)}), the “Time to 50% Substrate Cleavage by York PSA” value in series [2] worked out at 25 min. Besides, the EC50 in series [1] was 13 µM; with DuPRO cells, above 100 µM.

Turning to `COCCOCCOCCOCCOCCOCCOCC(=O)N[C@@H](C)C(=O)N[C@@H](CO)C(=O)N[C@H](C(=O)N[C@@H](CCC(N)=O)C(=O)N[C@@H](CO)C(=O)N[C@@H](CC(C)C)C(=O)N[C@H]1C[C@H](O[C@H]2C[C@](O)(C(=O)CO)Cc3c(O)c4c(c(O)c32)C(=O)c2c(OC)cccc2C4=O)O[C@@H](C)[C@H]1O)C1CCCCC1` [PEG(6)-ASChgQ-SL-DOX (3′), PEG(6)-AlaSerChgGln-SerLeu-DOX (3′)] (X4-AS[Chg]QSL-{Doxorubicin(3'-N)}), in series [2], the “Time to 50% Substrate Cleavage by York PSA” value amounted to 160 min. Moreover, the EC50 in series [1] amounted to 12 µM.

Regarding “N-[2-{2-(2-methoxyethoxy)ethoxy}acetyl]-Ser-Ser-Ser-Chg-Gln-Ser-Leu-Dox ({Decanoyl(3,6,9-trioxa)}-SSS[Chg]QSL-Dox) [PEG(2)-SSSChgQ-SL-DOX (3′)]”, the “Time to 50% Substrate Cleavage by York PSA” value in series [2] was 60 min. Further, the results for the EC50 (in series [1]; in the series on DuPRO cells) were 10 µM and above 100 µM, respectively.

As to `CCCC[C@H](NC(=O)[C@H](CO)NC(=O)[C@H](CCC(N)=O)NC(=O)[C@H](Cc1ccc(O)cc1)NC(=O)[C@H](CO)NC(=O)[C@H](CO)NC(=O)[C@H](CCCCNC(=N)N)NC(=O)CO)C(=O)N[C@H]1C[C@H](O[C@H]2C[C@](O)(C(=O)CO)Cc3c(O)c4c(c(O)c32)C(=O)c2c(OC)cccc2C4=O)O[C@@H](C)[C@H]1O` [2-hydroxyacetyl-HomoRSSYQ-SNle-DOX (3′), 2-hydroxyacetyl-hArgSerSerTyrGln-SerNle-DOX (3′)] (Glycolyl-[hArg]SSYQS[Nle]-{Doxorubicin(3'-N)}), in series [2] (alternative PSA digestion buffer pH8.0, 25 mM NaCl, 0.5 mM CaCl2), the “Time to 50% Substrate Cleavage by York PSA (Min), value marked *” value was 60* Min. Besides, the EC50 in series [1] was 3.6 µM; in the series on DuPRO cells, above 100 µM.

Regarding `COc1cccc2c1C(=O)c1c(O)c3c(c(O)c1C2=O)C[C@@](O)(C(=O)CO)C[C@@H]3O[C@H]1C[C@H](NC(=O)[C@H](CC(C)C)NC(=O)[C@H](CO)NC(=O)[C@H](CCC(N)=O)NC(=O)[C@@H](NC(=O)[C@H](CO)NC(=O)[C@H](CO)NC(=O)[C@H](Cc2cccnc2)NC(=O)[C@H](O)CO)C2CCCCC2)[C@H](O)[C@H](C)O1` [(d)(2,3-dihydroxypropionyl)-3PAL-SerSerChgGln-SerLeu-DOX (3′)] ({Glyceroyl(2R)}-[3Pal]SS[Chg]QSL-{Doxorubicin(3'-N)}), the “Time to 50% Substrate Cleavage by York PSA” value in series [2] is 12 min. Further, the EC50 in series [1] stood at 5.5 µM.

In the case of `COc1cccc2c1C(=O)c1c(O)c3c(c(O)c1C2=O)C[C@@](O)(C(=O)CO)C[C@@H]3O[C@H]1C[C@H](NC(=O)[C@H](CC(C)C)NC(=O)[C@H](CO)NC(=O)[C@H](CCC(N)=O)NC(=O)[C@H](Cc2ccc(O)cc2)NC(=O)[C@H](CO)NC(=O)[C@H](CO)NC(=O)[C@H](CCCCNC(=N)N)NC(=O)CO)[C@H](O)[C@H](C)O1` [2-hydroxyacetyl-HomoRSSYQ-SL-DOX (3′), 2-hydroxyacetyl-hArgSerSerTyrGln-SerLeu-DOX (3′)] (Glycolyl-[hArg]SSYQSL-{Doxorubicin(3'-N)}), the “Time to 50% Substrate Cleavage by York PSA” value in series [2] worked out at 16 min. In addition, the EC50 in series [1] turned out to be 13.6 µM.

In the case of `COCCOCCOCC(=O)N[C@@H](CCCCNC(=N)N)C(=O)N[C@@H](Cc1ccc(O)cc1)C(=O)N[C@@H](CCC(N)=O)C(=O)N[C@@H](CO)C(=O)N[C@@H](CO)C(=O)N[C@@H](CO)C(=O)N[C@@H](CC(C)C)C(=O)N[C@H]1C[C@H](O[C@H]2C[C@](O)(C(=O)CO)Cc3c(O)c4c(c(O)c32)C(=O)c2c(OC)cccc2C4=O)O[C@@H](C)[C@H]1O` [PEG(2)-HomoRYQ-SSSL-DOX (3′), PEG(2)-hArgTyrGln-SerSerSerLeu-DOX (3′)] ({Decanoyl(3,6,9-trioxa)}-[hArg]YQSSSL-{Doxorubicin(3'-N)}), the “Substrate cleavage by York PSA at 4 HOUR” value in series [2] (4 hours) is listed as 40%. Also, in series [1], the EC50 is 14 µM.

With `COCCOCCOCC(=O)N[C@@H](CO)C(=O)N[C@@H](CCCCNC(=N)N)C(=O)N[C@@H](Cc1ccc(O)cc1)C(=O)N[C@@H](CCC(N)=O)C(=O)N[C@@H](CO)C(=O)N[C@@H](CC(C)C)C(=O)N[C@H]1C[C@H](O[C@H]2C[C@](O)(C(=O)CO)Cc3c(O)c4c(c(O)c32)C(=O)c2c(OC)cccc2C4=O)O[C@@H](C)[C@H]1O` [PEG(2)-SHomoRYQ-SL-DOX (3′), PEG(2)-SerhArgTyrGln-SerLeu-DOX (3′)] ({Decanoyl(3,6,9-trioxa)}-S[hArg]YQSL-{Doxorubicin(3'-N)}), in series [2], the “Time to 50% Substrate Cleavage by York PSA” value turned out to be 60 min. In addition, the EC50 in series [1] (listed as PEG(2)-ShRYQ-SL-DOX(3′)) was found to be 34 µM.

Consider `COCCOCCOCCOCCOCCOCCOCCOCCOCCOCCOCCOCCOCCOCCOCCOCCOCC(=O)N[C@@H](CO)C(=O)N[C@@H](CCCCNC(=N)N)C(=O)N[C@@H](Cc1ccc(O)cc1)C(=O)N[C@@H](CCC(N)=O)C(=O)N[C@@H](CO)C(=O)N[C@@H](CC(C)C)C(=O)N[C@H]1C[C@H](O[C@H]2C[C@](O)(C(=O)CO)Cc3c(O)c4c(c(O)c32)C(=O)c2c(OC)cccc2C4=O)O[C@@H](C)[C@H]1O` [PEG(16)-SHomoRYQ-SL-DOX (3′), PEG(16)-SerhArgTyrGln-SerLeu-DOX (3′)] (X2-S[hArg]YQSL-{Doxorubicin(3'-N)}), for which the “Time to 50% Substrate Cleavage by York PSA” value in series [2] came out at 65 min. In series [1], the EC50 worked out at 45 µM.

For `COc1cccc2c1C(=O)c1c(O)c3c(c(O)c1C2=O)C[C@@](O)(C(=O)CO)C[C@@H]3O[C@H]1C[C@H](NC(=O)[C@H](CC(C)C)NC(=O)[C@H](CO)NC(=O)[C@H](CCC(N)=O)NC(=O)[C@@H](NC(=O)[C@H](CO)NC(=O)[C@H](CO)NC(=O)[C@H](CCCCNC(=N)N)NC(=O)CO)C2CCCCC2)[C@H](O)[C@H](C)O1` [2-hydroxyacetyl-HomoRSSChgQ-SL-DOX (3′), 2-hydroxyacetyl-hArgSerSerChgGln-SerLeu-DOX (3′)] (Glycolyl-[hArg]SS[Chg]QSL-{Doxorubicin(3'-N)}), the values for the EC50 (in series [1]; with DuPRO cells) were 5.5 µM and above 100 µM, respectively.
